Source: ChEMBL document CHEMBL3046296, “Development of a New Herbicide, Indanofan” (J Pestic Sci, 2004)

Assays:
Zoysia matrella = experiment: Pre-emergence herbicide activity against Zoysia matrella measured 7 days after planting; type: functional
Poa annua = experiment: Pre-emergence herbicide activity against Poa annua up to two-leaf stage; type: functional
Echinochloa oryzicola [1] = experiment: Pre-emergence herbicide activity against Echinochloa oryzicola after 42 days; type: functional
Echinochloa crus-galli = experiment: Pre-emergence herbicide activity against Echinochloa crus-galli (barnyard grass) up to 3-leaf stage; type: functional
Echinochloa oryzicola [2] = experiment: Pre-emergence herbicide activity against Echinochloa oryzicola up to three-leaf stage; type: functional
[3] = Octanol-water partition co-efficient, log P of the compound in water at 25 degC; type: physicochemical

Question: Which Activity (Zoysia matrella) does the source give for CCC1(CC2(c3cccc(Cl)c3)CO2)C(=O)c2ccccc2C1=O (stereo not drawn) [(RS)-INDANOFAN] here?
Answer: 1 KgAi/ha

Question: What about the Activity (Poa annua) of the same compound?
Answer: 0.5 KgAi/ha

Question: And the Activity (Echinochloa oryzicola [1])?
Answer: 0.15 KgAi/ha

Question: And the Activity (Echinochloa crus-galli)?
Answer: 0.15 KgAi/ha

Question: And the Activity (Echinochloa oryzicola [2])?
Answer: 0.15 KgAi/ha

Question: And the logP [3]?
Answer: 3.59
